From ChEMBL document CHEMBL5214978, “Identification of 1,4-Benzodiazepine-2,5-dione Derivatives as Potential Protein Synthesis Inhibitors with Highly Potent Anticancer Activity” (J Med Chem, 2022)

What was measured:
Type in all cases: functional
[1] = system: A549; assay: Anticancer activity against human A549 cells assessed as cell growth inhibition measured after 48 hrs by SRB assay
[2] = system: HCT-116; assay: Anticancer activity against human HCT-116 cells assessed as cell growth inhibition measured after 48 hrs by SRB assay
[3] = system: SF-295; assay: Anticancer activity against human SF-295 cells assessed as cell growth inhibition measured after 48 hrs by SRB assay
[4] = system: LOX IMVI; assay: Anticancer activity against human LOX IMVI cells assessed as cell growth inhibition measured after 48 hrs by SRB assay
[5] = system: 786-0; assay: Anticancer activity against human 786-0 cells assessed as cell growth inhibition measured after 48 hrs by SRB assay
[6] = system: Panel NCI-60 (60 carcinoma cell lines); assay: Anticancer activity against human Panel NCI-60 (60 carcinoma cell lines) line assessed as cell growth inhibition measured after 48 hrs by SRB assay

Row | Structure (SMILES) | GI50 [1] [µM] | GI50 [2] [µM] | GI50 [5] [µM] | GI50 [3] [µM] | GI50 [4] [µM] | GI50 [6] [µM]
1 | COc1cc(C(=O)Nc2cc3c(cc2Oc2cc(C)cc(C)c2)C(=O)N[C@@H](Cc2ncnn2C)C(=O)N3)cc(OC)c1OC | 0.47 | 0.09 | 36 | 0.18 | 0.07 | 0.16
2 | CCN(CC)C(=O)C[C@@H]1NC(=O)c2cc(Oc3cc(C)c(F)c(C)c3)c(NC(=O)c3cc(OC)c(OC)c(OC)c3Cl)cc2NC1=O | 0.026 | 0.017 | 0.061 | 0.027 | 0.008 | 0.016
3 | COC(=O)C[C@@H]1NC(=O)c2cc(Oc3cc(C)cc(C)c3)c(NC(=O)c3cc(OC)cc(OC)c3)cc2NC1=O | 0.15 | 0.2 | 0.15 | 0.08 | 0.24 | 0.24
4 | CCN(CC)C(=O)C[C@@H]1NC(=O)c2cc(Oc3cc(C)c(Br)c(C)c3)c(NC(=O)c3cc(OC)c(OC)c(OC)c3)cc2NC1=O | 0.243 | 0.172 | 1 |  | 0.128 | 0.234
5 | CCN(CC)C(=O)C[C@H]1C(=O)Nc2cc(NC(=O)c3c(Cl)c(OC)c(OC)c(OC)c3Br)c(Oc3cc(C)cc(C)c3)cc2C(=O)N1C | 0.074 | 0.07 | 0.087 | 0.068 | 0.039 | 0.068
6 | CCc1noc(C[C@@H]2NC(=O)c3cc(Oc4cc(C)cc(C)c4)c(NC(=O)c4cc(OC)c(OC)c(OC)c4)cc3NC2=O)n1 | 0.14 | 0.26 | 0.72 | 0.11 | 0.13 | 0.27
7 | COC(=O)C[C@@H]1NC(=O)c2cc(OCCN3CCOCC3)c(NC(=O)c3cc(OC)c(OC)c(OC)c3)cc2NC1=O | > 50 | > 50 | > 50 | > 50 | > 50 | > 50
8 | CCN(CC)C(=O)C[C@H]1C(=O)Nc2cc(NC(=O)c3cc(OC)c(OC)c(OC)c3)c(Oc3cc(C)cc(C)c3)cc2C(=O)N1CC | 0.148 | 0.145 | 0.158 | 0.118 | 0.134 | 0.069
9 | COc1cc(C(=O)Nc2cc3c(cc2Oc2cc(C)cc(C)c2)C(=O)N[C@@H](Cc2nnc(C)o2)C(=O)N3)cc(OC)c1OC | 1.38 | 1.26 | 1.42 | 0.94 | 1.28 | 1.58
10 | CCCCN(CCCC)C(=O)C[C@@H]1NC(=O)c2cc(Oc3cc(C)cc(C)c3)c(NC(=O)c3cc(OC)c(OC)c(OC)c3)cc2NC1=O | 0.36 | 0.46 | 0.36 | 0.32 | 0.34 | 
11 | COC(=O)C[C@@H]1NC(=O)c2cc(Oc3cc(C)cc(C)c3)c(NC(=O)c3ccc(OC)c(OC)c3OC)cc2NC1=O | > 50 | > 50 | > 50 | > 50 | > 50 | > 50
12 | COC(=O)C[C@@H]1NC(=O)c2cc(C#Cc3cc(C)cc(C)c3)c(NC(=O)c3cc(OC)c(OC)c(OC)c3)cc2NC1=O | > 50 | > 50 | > 50 | > 50 | > 50 | > 50
13 | CCN(CC)C(=O)C[C@@H]1NC(=O)c2cc(Oc3cc(C)cc(C)c3)c(NC(=O)c3cc(OC)c(OC)c(OC)c3)cc2N(C)C1=O | > 50 | > 50 | > 50 | > 50 | > 50 | > 50
14 | COC(=O)C[C@@H]1NC(=O)c2cc(Oc3cc(C)cc(C)c3)c(NC(=O)c3ccc(F)cc3)cc2NC1=O | > 50 | > 50 | > 50 | > 50 | > 50 | > 50
15 | COc1cc(C(=O)Nc2cc3c(cc2Oc2cc(C)cc(C)c2)C(=O)N[C@@H](CC(=O)N2CCN(C)CC2)C(=O)N3)cc(OC)c1OC | 0.18 | 0.14 | 1.57 | 0.67 | 0.09 | 1.58
16 | CCN(CC)C(=O)C[C@@H]1NC(=O)c2cc(Oc3cc(C)cc(C)c3)c(NC(=O)c3cc(OC)c(OC)c(OC)c3Br)cc2NC1=O | < 0.005 | > 0.005 | 0.007 | < 0.005 | < 0.005 | < 0.005
17 | CCN(CC)C(=O)C[C@@H]1NC(=O)c2cc(Oc3cc(C)cc(C)c3)c(NC(=O)c3c(F)c(OC)c(OC)c(OC)c3Cl)cc2NC1=O | 0.015 | 0.017 | 0.061 | 0.04 | 0.007 | 0.023
18 | COC(=O)C[C@@H]1NC(=O)c2cc(Oc3cc(C)cc(C)c3)c(NC(=O)c3ccco3)cc2NC1=O | > 50 | > 50 | > 50 | > 50 | > 50 | > 50
19 | CCN(CC)C(=O)C[C@@H]1NC(=O)c2cc(Oc3cc(C)cc(C)c3)c(NC(=O)c3cc(OC)c(OC)c(OC)c3Cl)cc2NC1=O | 0.017 | < 0.013 | 0.04 | 0.023 | < 0.005 | 
20 | COC(=O)C[C@@H]1NC(=O)c2cc(OCc3ccccc3)c(NC(=O)c3cc(OC)c(OC)c(OC)c3)cc2NC1=O | > 50 | > 50 | > 50 | > 50 | > 50 | > 50
21 | CCN(CC)C(=O)C[C@H]1C(=O)Nc2cc(NC(=O)c3cc(OC)c(OC)c(OC)c3Cl)c(Oc3cc(C)c(F)c(C)c3)cc2C(=O)N1C | 0.021 | 0.022 | 0.03 | 0.019 | 0.009 | 0.018

Now from value to compound, other results behind:

Row | GI50 [1] [µM] | GI50 [2] [µM] | GI50 [5] [µM] | Structure (SMILES) | GI50 [3] [µM] | GI50 [4] [µM] | GI50 [6] [µM]
22 | 0.14 | 0.16 | 0.16 | COC(=O)C[C@@H]1NC(=O)c2cc(Oc3cc(C)cc(F)c3)c(NC(=O)c3cc(OC)c(OC)c(OC)c3)cc2NC1=O | 0.15 | 0.19 | 0.18
23 | 1.52 | 2.01 | 2.4 | COC(=O)C[C@@H]1NC(=O)c2cc(Oc3ccc(C)c(C)c3)c(NC(=O)c3cc(OC)c(OC)c(OC)c3)cc2NC1=O | 1.01 | 2.55 | 1.91
24 | > 50 | > 50 | > 50 | CCOC(=O)C1NC(=O)c2cc(Oc3cc(C)cc(C)c3)c(NC(=O)c3cc(OC)c(OC)c(OC)c3)cc2NC1=O (configuration not stated) | > 50 | > 50 | > 50
25 | 0.14 | 0.03 |  | COc1cc(C(=O)Nc2cc3c(cc2Oc2cc(C)cc(C)c2)C(=O)N[C@@H](CC(=O)N(C)C)C(=O)N3)cc(OC)c1OC | 0.11 | 0.02 | 0.06
26 | 3.97 | 0.79 | 3.45 | COc1cc(C(=O)Nc2cc3c(cc2Oc2cc(C)cc(C)c2)C(=O)N[C@@H](CC(N)=O)C(=O)N3)cc(OC)c1OC | 2.01 | 0.35 | 1.12
27 | 1.26 | 2.08 | 1.86 | COC(=O)CC[C@@H]1NC(=O)c2cc(Oc3cc(C)cc(C)c3)c(NC(=O)c3cc(OC)c(OC)c(OC)c3)cc2NC1=O | 1.1 | 1.92 | 1.2
28 | > 50 | > 50 | > 50 | COC(=O)C[C@@H]1NC(=O)c2cc(Oc3cc(Cl)cc(Cl)c3)c(NC(=O)c3cc(OC)c(OC)c(OC)c3)cc2NC1=O | > 50 | > 50 | > 50
29 | 1.81 | 2.82 | 4.78 | COC(=O)C[C@@H]1NC(=O)c2cc(OCc3cc(C)cc(C)c3)c(NC(=O)c3cc(OC)c(OC)c(OC)c3)cc2NC1=O | 1.5 | 2.99 | 3.02
30 | > 50 | > 50 | > 50 | COC(=O)C[C@@H]1NC(=O)c2cc(OC)c(NC(=O)c3cc(OC)c(OC)c(OC)c3)cc2NC1=O | > 50 | > 50 | > 50
31 | 1.86 | 0.51 | 1.91 | CCCCOC(=O)C[C@@H]1NC(=O)c2cc(Oc3cc(C)cc(C)c3)c(NC(=O)c3cc(OC)c(OC)c(OC)c3)cc2NC1=O | 1.91 | 3.98 | 
32 | > 50 | > 50 | > 50 | COc1cc(C(=O)Nc2cc3c(cc2Oc2cc(C)cc(C)c2)C(=O)N[C@@H](CC(=O)O)C(=O)N3)cc(OC)c1OC | > 50 | > 50 | > 50
33 | > 50 | > 50 | > 50 | COC(=O)C[C@H]1NC(=O)c2cc(Oc3cc(C)cc(C)c3)c(NC(=O)c3cc(OC)c(OC)c(OC)c3)cc2NC1=O | > 50 | > 50 | > 50
34 | > 50 | > 50 | > 50 | COC(=O)C[C@@H]1NC(=O)c2cc(OCCCc3cc(C)cc(C)c3)c(NC(=O)c3cc(OC)c(OC)c(OC)c3)cc2NC1=O | > 50 | > 50 | > 50
35 | 1.4 | 1.71 | 2.13 | COC(=O)C[C@@H]1NC(=O)c2cc(Oc3ccc4c(c3)CCC4)c(NC(=O)c3cc(OC)c(OC)c(OC)c3)cc2NC1=O | 0.99 | 1.93 | 1.86
36 | 0.02 | 0.02 | 0.09 | CCN(CC)C(=O)C[C@@H]1NC(=O)c2cc(Oc3cc(C)cc(C)c3)c(NC(=O)c3cc(OC)c(OC)c(OC)c3)cc2NC1=O | 0.02 | 0.02 | 0.03
37 | > 50 | > 50 | > 50 | COC(=O)C[C@@H]1NC(=O)c2cc(Oc3ccc(OC)cc3)c(NC(=O)c3cc(OC)c(OC)c(OC)c3)cc2NC1=O | > 50 | > 50 | > 50
